6 compounds from patent US20260028321A1, “1,3,4-OXADIAZOLE DERIVATIVE COMPOUNDS AS HISTONE DEACETYLASE 6 INHIBITOR, AND USES THEREOF” (CHONG KUN DANG PHARMACEUTICAL CORP., priority 2022, published 2026) can be followed below.

For one assay, the target named is HDAC1 (Homo sapiens (Human), UniProt Q13547). As to the kind of experiment: HDAC1 enzyme activity inhibition assay (HDAC1 Fluorimetric Drug Discovery Assay Kit). In kind it is biochemical. The following applies: test substance 100, 1000, 10000 nM; 37° C. 60 minutes, developer 30 minutes; fluorescence Ex 390, Em 460. The procedure:
(§1) The HDAC enzyme inhibition ability of the test substance was measured using the HDAC1 Fluorimetric Drug Discovery Assay Kit (Enzo life sciences: BML-AK511) and the HDAC6 human recombinant (Calbiochem: 382180). In the HDAC1 assay, the test substance was treated at concentrations of 100, 1000, and 10000 nM, and in the HDAC6 assay, the test substance was treated at concentrations of 0.1, 1, 10, 100, and 1000 nM. After sample treatment, the samples were reacted at 37° C. for 60 minutes, followed by reaction at 37° C. for 30 minutes by treatment with a developer, and fluorescence intensities (Ex 390, Em 460) thereof were measured using FlexStatin3 (Molecular device).

In a further assay the target is HDAC6 human recombinant (Homo sapiens (Human), UniProt Q9UBN7). As to the kind of experiment: HDAC6 enzyme activity inhibition assay (fluorimetric). The class given is biochemical. The following applies: test substance 0.1-1000 nM; 37° C. 60 minutes, developer 30 minutes; fluorescence Ex 390, Em 460. The procedure:
as §1

HDAC1, sequence (Q13547 whole entry): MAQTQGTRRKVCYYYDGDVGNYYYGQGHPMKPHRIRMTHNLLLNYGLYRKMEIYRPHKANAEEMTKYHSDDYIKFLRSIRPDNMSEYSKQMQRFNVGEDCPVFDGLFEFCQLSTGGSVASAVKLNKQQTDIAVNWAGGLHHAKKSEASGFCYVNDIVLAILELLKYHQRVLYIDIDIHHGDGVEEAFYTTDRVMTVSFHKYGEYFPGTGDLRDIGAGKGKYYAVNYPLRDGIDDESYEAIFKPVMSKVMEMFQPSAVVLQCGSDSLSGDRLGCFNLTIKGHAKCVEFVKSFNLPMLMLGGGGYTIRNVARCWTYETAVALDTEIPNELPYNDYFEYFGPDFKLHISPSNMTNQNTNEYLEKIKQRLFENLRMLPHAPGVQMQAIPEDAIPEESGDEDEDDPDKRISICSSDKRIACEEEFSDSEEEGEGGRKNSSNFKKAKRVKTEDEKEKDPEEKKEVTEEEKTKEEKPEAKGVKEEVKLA
HDAC6 human recombinant, sequence (Q9UBN7 whole entry): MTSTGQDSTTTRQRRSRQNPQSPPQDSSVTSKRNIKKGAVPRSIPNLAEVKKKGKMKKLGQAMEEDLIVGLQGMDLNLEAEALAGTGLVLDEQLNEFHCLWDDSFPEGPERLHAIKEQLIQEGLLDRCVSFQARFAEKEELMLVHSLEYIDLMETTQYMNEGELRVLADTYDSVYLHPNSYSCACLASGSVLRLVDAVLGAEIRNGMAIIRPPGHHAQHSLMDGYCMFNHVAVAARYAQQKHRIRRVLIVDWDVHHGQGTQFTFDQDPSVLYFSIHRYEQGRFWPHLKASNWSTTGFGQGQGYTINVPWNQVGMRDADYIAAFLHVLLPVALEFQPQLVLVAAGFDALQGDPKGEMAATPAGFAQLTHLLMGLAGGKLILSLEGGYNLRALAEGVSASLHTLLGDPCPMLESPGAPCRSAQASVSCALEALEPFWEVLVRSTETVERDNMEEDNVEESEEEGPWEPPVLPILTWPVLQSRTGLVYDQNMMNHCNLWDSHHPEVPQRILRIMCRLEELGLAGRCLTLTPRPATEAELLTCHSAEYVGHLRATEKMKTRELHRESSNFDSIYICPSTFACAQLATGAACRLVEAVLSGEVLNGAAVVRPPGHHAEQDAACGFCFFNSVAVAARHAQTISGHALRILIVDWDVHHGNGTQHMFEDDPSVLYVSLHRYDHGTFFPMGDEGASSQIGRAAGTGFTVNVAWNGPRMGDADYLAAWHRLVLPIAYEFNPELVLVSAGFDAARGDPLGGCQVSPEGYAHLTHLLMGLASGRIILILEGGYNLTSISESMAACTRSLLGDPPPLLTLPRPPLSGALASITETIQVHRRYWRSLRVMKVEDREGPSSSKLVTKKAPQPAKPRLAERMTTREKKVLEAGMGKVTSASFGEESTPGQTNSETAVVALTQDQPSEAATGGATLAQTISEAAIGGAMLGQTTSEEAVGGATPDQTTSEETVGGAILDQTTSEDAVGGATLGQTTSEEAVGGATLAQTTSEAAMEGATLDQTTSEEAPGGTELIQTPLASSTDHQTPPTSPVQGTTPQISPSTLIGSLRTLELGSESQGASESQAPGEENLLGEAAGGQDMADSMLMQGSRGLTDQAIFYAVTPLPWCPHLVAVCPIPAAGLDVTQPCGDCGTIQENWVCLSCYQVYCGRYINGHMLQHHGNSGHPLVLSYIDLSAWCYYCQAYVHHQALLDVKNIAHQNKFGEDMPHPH

`O=c1c(N(Cc2ccc(-c3nnc(C(F)F)o3)cn2)c2ccccc2)c(N2C[C@@H]3C[C@H]2CN3C2COC2)c1=O` [Compound 17, 3-(((5-(5-(difluoromethyl)-1,3,4-oxadiazol-2-yl)pyridin-2-yl)methyl)(phenyl)amino)-4-((1S,4S)-5-(oxetan-3-yl)-2,5-diazabicyclo[2.2.1]heptan-2-yl)cyclobut-3-ene-1,2-dione]: the concentration for half-maximal inhibition (IC50) – broadly, the point on the concentration scale where inhibition reaches its midpoint – on HDAC1 was above 10000 nM; at HDAC6 human recombinant, 43 nM.
As to `CN1CCN(c2c(N(Cc3ccc(-c4nnc(C(F)F)o4)cn3)c3cccc(-c4cccnc4)c3)c(=O)c2=O)CC1` [Compound 18, 3-(((5-(5-(difluoromethyl)-1,3,4-oxadiazol-2-yl)pyridin-2-yl)methyl)(3-(pyridin-3-yl)phenyl)amino)-4-(4-methylpiperazin-1-yl)cyclobut-3-ene-1,2-dione], the IC50 against HDAC1 was above 10000 nM; at HDAC6 human recombinant, 51 nM.
For `CN1CCN(c2c(N(Cc3ccc(-c4nnc(C(F)F)o4)cn3)c3cccc(-c4ccncc4)c3)c(=O)c2=O)CC1` [Compound 19, 3-(((5-(5-(difluoromethyl)-1,3,4-oxadiazol-2-yl)pyridin-2-yl)methyl)(3-(pyridin-4-y 1)phenyl)amino)-4-(4-methylpiperazin-1-yl)cyclobut-3-ene-1,2-dione], in that order: above 10000 nM and 102 nM.
For `CN1CCN(c2c(N(Cc3ccc(-c4nnc(C(F)F)o4)cc3F)c3ccc(F)c(F)c3)c(=O)c2=O)CC1` [Compound 22, 3-((4-(5-(difluoromethyl)-1,3,4-oxadiazol-2-yl)-2-fluorobenzyl)(3,4-difluorophenyl)amino)-4-(4-methylpiperazin-1-yl)cyclobut-3-ene-1,2-dione], in that order: above 10000 nM and 64 nM.
`O=c1c(N2CCN(C3COC3)CC2)c(N(Cc2ccc(-c3nnc(C(F)F)o3)cc2F)c2ccc(F)c(F)c2)c1=O` [Compound 23, 3-((4-(5-(difluoromethyl)-1,3,4-oxadiazol-2-yl)-2-fluorobenzyl)(3,4-difluorophenyl)amino)-4-(4-(oxetan-3-yl)piperazin-1-yl)cyclobut-3-ene-1,2-dione]: the IC50 against HDAC1 is above 10000 nM; on HDAC6 human recombinant, 50 nM.
For the compound `O=c1c(N2CCOCC2)c(N(Cc2ccc(-c3nnc(C(F)(F)F)o3)cc2)c2ccccc2)c1=O` [Compound 24, 3-morpholino-4-[N-[[4-[5-(trifluoromethyl)-1,3,4-oxadiazol-2-yl]phenyl]methyl]anilino]cyclobut-3-ene-1,2-dione], the half-inhibitory concentration (IC50) against HDAC1 was above 10000 nM; at HDAC6 human recombinant, 161 nM.
